Measurements from patent publication US20260199564A1, “METHOD OF PREVENTING BLOOD COAGULATION AND DRUG-ELUTING IMPLANT FOR PERCUTANEOUS CORONARY INTERVENTION” (priority 2023, published 2026).

Assays:
[1] = system: TNF-α; assay: LPS-induced TNF-α expression in HUVECs; format: cell-based, human; conditions: 1, 3, 10 μM for 1 h prior to LPS (1 μg/ml) stimulation for 24 h
Protocol: (§1) HUVECs were treated for 1 h with ginsenoside CK (1 μM, 3 μM, and 10 μM) prior to LPS (1 μg/ml) stimulation for 24 h (A) IL-6 (B) TNF-αexpression. Values are means±SEM of 3 independent experiments. Statistical significance assessed by one-way ANOVA followed by Scheffe post-hoc test for multiple comparisons (***P<0.01, *P<0.05 vs LPS).
(§2) Treatment of HUVECs with LPS (1 μg/ml) increased IL-6 and TNF-αexpression. To determine whether LPS-induced IL-6 and TNF-αexpression was affected by ginsenoside CK, HUVECs were treated for 1 h with ginsenoside CK (1 μM, 3 μM, and 10 μM) prior to LPS (1 μg/ml) stimulation for 24 h.

[2] = system: ICAM-1; assay: LPS-induced ICAM-1 mRNA expression in HUVECs; format: cell-based, human; conditions: 1, 3, 10 μM for 1 h prior to LPS (1 μg/ml) stimulation for 24 h
Protocol: as §1, with “24 h.” for “24 h”, “(A) ICAM-1” for “(A) IL-6”, “(B) VCAM-1 mRNA expression.” for “(B) TNF-αexpression.”
Treatment of HUVECs with LPS (1 μg/ml) increased ICAM-1 and VCAM-1 mRNA expression. Twenty-four hours after LPS treatment, maximal expression of ICAM-1 and VCAM-1 was attained. To determine whether LPS-stimulated ICAM-1 and VCAM-1 mRNA expression is affected by ginsenoside CK, HUVECs were treated for 1 h with ginsenoside CK (1 μM, 3 μM, and 10 μM) prior to LPS (1 μg/ml) stimulation for 24 h.

[3] = biological target: T1, hERG channel (Homo sapiens, UniProt Q12809); assay: Predictor hERG fluorescence polarization (FP) binding assay
T1 construct: purchased
Protocol: • a. Primary stock solutions of 3 mM CK and astemizole in 100% DMSO were diluted in 3-fold serial dilutions in the same solvent to obtain 16 different concentrations ranging from 3 mM to […]. These solutions were further diluted 25-fold with FP (fluorescence polarization) assay buffer and then transferred to the assay plate. • b. Each test solution in the assay plate was further diluted 4-fold with FP assay buffer. Predictor™ hERG membrane preparations were thawed at room temperature and sonicated. Predictor™ hERG Tracer Red (250 nM) was diluted to 4 nM with hERG FP assay buffer. All experiments were performed in FP assay buffer containing […].
• a. The FP assay was carried out using Predictor™ hERG Fluorescence Polarization Assay Kit. The binding assay was conducted following the manufacturer's recommended protocol with some modifications. Aliquots (5 μL) of each concentration of test article of reference were pipetted into the appropriate wells of a black 384-well micro-plate containing 10 μL of hERG membrane and 5 μL of 4 nM fluorescent tracer and covered with plate lid to protect the reagents exposed to from light. • b. The experiments were performed using triplicate wells for each concentration. Following a 3-hour incubation at room temperature, the microplates were read on a Tecan Infinite® F200 plate reader using polarized excitation filter setting at 535 nm and emission filter setting at 590 nm (25 and 20 nm bandwidths, respectively). Assay robustness was assessed by measuring 16 replicates positive control wells (containing 30 μM E-4031, known hERG channel blocker, in FP assay mixture) and negative control wells (no hERG channel blocker in FP assay mixture).
• a. To evaluate the robustness of the hERG assays, the signal-to-noise ratio was quantified by calculating Z′-factor for each assay. In statistics, the Z′-factor provides a way to evaluate the quality of the assay. […]. Z′-factor values were determined using the blank subtracted polarization values from 16 wells of • negative and positive controls using the formula of Zhang et al. […]

[4] = system: HUVECs; assay: HUVEC cell viability by CCK-8 assay; format: cell-based, human; conditions: 1 μM, 3 μM, and 10 μM alone for 24 h
[5] = system: IL-6; assay: LPS-induced IL-6 expression in HUVECs; format: cell-based, human; conditions: 1, 3, 10 μM for 1 h prior to LPS (1 μg/ml) stimulation for 24 h
Protocol: as §1, §2

[6] = biological target: T2, CYP2C19 (Homo sapiens, UniProt P33261); assay: Cytochrome P450 inhibition in human liver microsomes using LC-MS/MS, CYP2C19; format: in vitro ADME
T2 construct: with pooled human liver microsomes; from tissue; host or cells: pooled human liver microsomes
Protocol: In IC50 shift experiments, CK (0.2 μL prepared in DMSO) was pre-incubated for 30 min at 37° C., at 8 different concentrations, with pooled human liver microsomes (0.1-1 mg/mL, depending on which enzyme was assessed) in the absence or presence of 1 mM NADPH in 100 μL of potassium phosphate buffer (100 mM, pH 7.4) and MgCl2 (2.5 mM). After the pre-incubation, a substrate mixture containing a probe substrate in 100 μL of potassium phosphate buffer (100 mM, pH 7.4), MgCl2 (2.5 mM), and NADPH (1 mM) was added for measurement of the corresponding P450 activities. Incubations were terminated by addition of 200 μL methanol. Samples were then extracted and centrifuged and the supernatant was subjected to validated LC-MS/MS analysis.

T1 sequence (Q12809 whole entry): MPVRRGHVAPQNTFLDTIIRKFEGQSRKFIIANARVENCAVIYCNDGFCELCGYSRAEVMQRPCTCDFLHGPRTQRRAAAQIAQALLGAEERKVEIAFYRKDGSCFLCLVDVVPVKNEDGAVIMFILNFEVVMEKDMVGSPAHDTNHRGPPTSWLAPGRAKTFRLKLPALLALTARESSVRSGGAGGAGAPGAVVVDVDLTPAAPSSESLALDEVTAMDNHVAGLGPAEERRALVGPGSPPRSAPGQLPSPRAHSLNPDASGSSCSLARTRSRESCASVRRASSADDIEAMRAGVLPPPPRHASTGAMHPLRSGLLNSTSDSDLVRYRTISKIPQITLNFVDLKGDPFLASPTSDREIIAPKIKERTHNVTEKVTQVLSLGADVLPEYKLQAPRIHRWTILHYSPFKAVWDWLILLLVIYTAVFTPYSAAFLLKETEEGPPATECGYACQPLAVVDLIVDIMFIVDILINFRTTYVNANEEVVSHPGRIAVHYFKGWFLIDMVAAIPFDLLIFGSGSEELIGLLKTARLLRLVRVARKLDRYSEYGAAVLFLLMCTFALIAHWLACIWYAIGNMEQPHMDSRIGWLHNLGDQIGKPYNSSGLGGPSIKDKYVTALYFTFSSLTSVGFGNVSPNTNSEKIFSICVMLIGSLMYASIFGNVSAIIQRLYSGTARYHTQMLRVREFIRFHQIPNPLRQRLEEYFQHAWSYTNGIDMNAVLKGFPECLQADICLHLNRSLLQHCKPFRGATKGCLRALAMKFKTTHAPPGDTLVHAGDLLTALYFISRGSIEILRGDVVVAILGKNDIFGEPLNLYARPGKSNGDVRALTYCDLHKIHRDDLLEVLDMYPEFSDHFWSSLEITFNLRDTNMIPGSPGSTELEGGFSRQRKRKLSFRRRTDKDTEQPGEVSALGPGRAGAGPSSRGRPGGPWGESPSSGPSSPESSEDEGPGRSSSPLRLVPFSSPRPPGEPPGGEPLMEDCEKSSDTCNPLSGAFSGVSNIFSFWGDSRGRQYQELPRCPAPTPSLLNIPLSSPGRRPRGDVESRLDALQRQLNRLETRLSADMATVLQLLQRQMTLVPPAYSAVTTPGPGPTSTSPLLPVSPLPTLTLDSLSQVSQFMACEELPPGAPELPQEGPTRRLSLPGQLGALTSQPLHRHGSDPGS
T2 sequence (P33261 whole entry): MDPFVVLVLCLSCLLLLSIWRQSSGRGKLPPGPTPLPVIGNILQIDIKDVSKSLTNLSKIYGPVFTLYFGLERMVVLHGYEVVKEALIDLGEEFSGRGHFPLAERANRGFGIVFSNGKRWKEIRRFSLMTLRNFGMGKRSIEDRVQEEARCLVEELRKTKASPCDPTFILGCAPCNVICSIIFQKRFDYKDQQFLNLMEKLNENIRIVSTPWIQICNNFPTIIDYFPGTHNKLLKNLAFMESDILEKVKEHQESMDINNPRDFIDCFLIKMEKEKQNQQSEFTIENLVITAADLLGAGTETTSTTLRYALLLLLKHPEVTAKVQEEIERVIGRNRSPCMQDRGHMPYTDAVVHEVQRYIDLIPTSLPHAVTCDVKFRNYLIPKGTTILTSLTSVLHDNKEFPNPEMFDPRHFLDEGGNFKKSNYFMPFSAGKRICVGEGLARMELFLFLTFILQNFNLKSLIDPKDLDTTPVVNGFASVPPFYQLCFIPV

## CC(C)=CCC[C@](C)(O[C@@H]1O[C@H](CO)[C@@H](O)[C@H](O)[C@H]1O)[C@H]1CC[C@]2(C)[C@@H]1[C@H](O)C[C@@H]1[C@@]3(C)CC[C@H](O)C(C)(C)[C@@H]3CC[C@]12C [CK, Ginsenoside compound K]
[1]
  LPS-induced TNF-α expression: significantly decreased
[2]
  LPS-stimulated ICAM-1 mRNA expression: significantly inhibited
[3]; at 30 μM, triplicate measurements
  blocking effect for binding of tracer to the hERG membrane protein: minor blocking effect
[3]; classified from IC50
  risk classification of potency for hERG blocker: weak ligand
[3]; hERG FP assay, triplicate measurements
  IC50: > 30 µM
[4]
  cell viability: did not influence cell viability
[5]
  LPS-induced IL-6 expression: significantly decreased
[6]; 50 μM, 30 min pre-incubation in the presence or absence of NADPH
  inhibition at concentration of 50 μM: did not inhibit
[6]; pooled human liver microsomes, substrate S-Mephenytoin
  IC50: > 50 µM
